Assays:
Assay in all cases: Solid tumour and haematological malignancy assay (CellTiterGlo)
Format in all cases: cell-based
[1] = tested on: BxPC-3-Luc; settings: 72 hr, Table VII
Protocol: (§1) In vitro viability assay were performed to assess the effects of compounds on cell viability in selected cell lines over 72 hr using the CellTiterGlo (CTG, Promega-G7573) assay. The tests were performed in duplicates with treatment of compounds at 9 points, 3.16 folds titration in 96 well plates over ˜72 hr. The compound starting concentrations were 198 mM. Cell viability assay using CellTiterGlo in 96-well plate were performed. Compound treatment 72 hrs, standard growth conditions, duplicates. Compounds were dissolved to 40 mM with thawed […]. Compounds were serially diluted at 3.16 fold in thawed DMSO, and warmed to 37° C. before being dissolved in media (2 μl+200 μl). After compounds were dissolved in media, media containing compounds were warmed to 37° C. in incubator and then compounds in media were added to cell plates (50 μl+50 μl) in duplicates. The compounds' final concentrations were from 198M to 19.9 nM. All compound solubilities were checked and recorded again, then the plates were transferred to CO2 tissue culture incubator immediately and incubated for 3 days. DMSO final concentration is 0.5%.

[2] = tested on: MCF7; settings: Homo sapiens, MCF7, 72 h, read-out: MI %
Protocol: as §1, with “The tests were performed in duplicates with treatment of compounds at 9 points, 3.16 folds titration in 96 well plates over ˜72 hr. The compound starting concentrations were 198 mM.” left out, “Compounds were serially diluted at 3.16 fold in thawed DMSO, and warmed to 37° C. before being dissolved in media (2 μl+200 μl).” left out, “The compounds' final concentrations were from 198M to 19.9 nM.” left out

[3] = tested on: CCRFCEM; settings: Homo sapiens, CCRF-CEM, 72 h, read-out: MI %
Protocol: as §1, with “The tests were performed in duplicates with treatment of compounds at 9 points, 3.16 folds titration in 96 well plates over ˜72 hr. The compound starting concentrations were 198 mM.” left out, “Compounds were serially diluted at 3.16 fold in thawed DMSO, and warmed to 37° C. before being dissolved in media (2 μl+200 μl).” left out, “The compounds' final concentrations were from 198M to 19.9 nM.” left out

[4] = tested on: HT29; settings: Homo sapiens, HT-29, 72 h, read-out: MI %
Protocol: as §1, with “The tests were performed in duplicates with treatment of compounds at 9 points, 3.16 folds titration in 96 well plates over ˜72 hr. The compound starting concentrations were 198 mM.” left out, “Compounds were serially diluted at 3.16 fold in thawed DMSO, and warmed to 37° C. before being dissolved in media (2 μl+200 μl).” left out, “The compounds' final concentrations were from 198M to 19.9 nM.” left out

[5] = tested on: KG-1; settings: Homo sapiens, KG-1, 72 h, read-out: MI %
Protocol: as §1, with “The tests were performed in duplicates with treatment of compounds at 9 points, 3.16 folds titration in 96 well plates over ˜72 hr. The compound starting concentrations were 198 mM.” left out, “Compounds were serially diluted at 3.16 fold in thawed DMSO, and warmed to 37° C. before being dissolved in media (2 μl+200 μl).” left out, “The compounds' final concentrations were from 198M to 19.9 nM.” left out

[6] = tested on: MOLT-4; settings: Homo sapiens, MOLT-4, 72 h, read-out: MI %
Protocol: as §1

[7] = tested on: NCI-H929; settings: Homo sapiens, NCI-H929, 72 h, read-out: MI %
Protocol: as §1

[8] = tested on: RL; settings: Homo sapiens, 72 h, read-out: MI %
Protocol: as §1

SMILES: Nc1nc(Cl)nc2c1ncn2[C@@H]1O[C@H](CO)C[C@H]1O [2-Cl-cordycepin, 3′-deoxy-2-chloroadenosine, reference compound]
- MI % [1]: −1.3%

SMILES: COc1nc(N)c2ncn([C@@H]3O[C@H](COP(=O)(N[C@@H](C)C(=O)OCc4ccccc4)Oc4cccc5ccccc45)C[C@H]3O)c2n1 (stereo partly drawn) [K, (2S)-benzyl 2-((((2S,4R,5R)-5-(6-amino-2-methoxy-9H-purin-9-yl)-4-hydroxytetrahydrofuran-2-yl)methoxy)(naphthalen-1-yloxy)phosphorylamino)propanoate]
- Emax [2]: 99%
- Emax [3]: 102%
- Emax [4]: 98%
- Emax [5]: 99%
- Emax [6]: 104%
- Emax [7]: 102%
- Emax [8]: 104%

SMILES: CC(NP(=O)(OC[C@@H]1C[C@@H](O)[C@H](n2cnc3c(N)nc(Cl)nc32)O1)Oc1cccc2ccccc12)C(=O)OCc1ccccc1 (stereo in doubt) [S, (2R)-benzyl 2-((((2S,4R,5R)-5-(6-amino-2-chloro-9H-purin-9-yl)-4-hydroxytetrahydrofuran-2-yl)methoxy)(naphthalen-1-yloxy)phosphorylamino)propanoate]
- MI % [1]: 82.6%

SMILES: CCCCCOC(=O)[C@H](CC(C)C)NP(=O)(OC[C@@H]1C[C@H](O)[C@H](n2cnc3c(N)nc(OC)nc32)O1)Oc1cccc2ccccc12 (stereo partly shown) [Compound M]
- Emax [3]: 100%
